Measurements as given in patent publication US20070203126A1, “Synergistic Mixtures of O-Phenylphenol and Dazomet” (priority 2002, published 2007).
Like-named read-outs stand apart in the source and are kept apart here.

How the values were obtained:
[1] = tested on: mixed inoculum of bacteria; assay: microtiter plate MIC and combination (K value) test in nutrient broth; format: cell-based; conditions: 24 hours, read-out: MIC RESULTS against mixed inoculum of bacteria
Description: EQUIPMENT used for the experiment are as follows: • 1. Incubator capable of maintaining a variable temperature range (25-45 C.); • 2. Samples of each biocide or test compound to be examined; • 3. Microtiter plates—96 well with lid, sterile; • 4. 8-12 channel micropipetting device capable of pipetting 0-250 ul volumes; • 5. Micropipette tips capable of holding up to 250 ul volumes; • 6. Sterile microbiological culture broth. Trypticase Soy Broth (TSB) or Nutrient Broth (NB) is recommended for bacteria and Sabouraud Maltose Broth (SMB) or Sabouraud Dextrose Broth (SDB) is recommended for yeasts and molds. In the case of this particular study the microbiological culture medium was Nutrient Broth at pH 7.0, 8.0 and 9.0; • 7. Pure cultures of microorganisms of choice grown on appropriate agar medium; • 8. Sterile distilled water; • 9. 100 mL volumetric flasks (one for each biocide to be tested); • 10. Sterile 10 mL tubes of Phosphate buffer (Butterfield's buffer pH 7.2+/−0.2). Contains purified water, monobasic potassium phosphate and sodium hydroxide for pH adjustment; • 11. Sterile cotton swabs; • 12. 0.5 MacFarland Turbidity Standard;
Preparation of Bacterial Inocula
The day before testing, perform a streak plate of each organism to be tested on an appropriate agar medium (Trypticase Soy Agar). Organisms tested in this study were.
Wild strain bacteria isolated from previously contaminated industrial systems and which were identified as: Pseudomonas sp., Escherchia coli, Enterobacter sp., Alcaligenes sp. and Alcaligenes faecalis. On the day of the test, use a sterile cotton swab to harvest some of the growth. Place swab into a tube containing 10 mL sterile phosphate buffer. Compare and adjust the turbidity of the organisms in the tube to 1×10^8 cfu/mL using a 0.5 MacFarland Turbidity Standard. Dilute the 10 mL tube into 90 mL of sterile 2× nutrient broth at pH 7.0, 8.0 and 9.0.
The following procedure was used: • 1. Design the layout of the microtiter plates based on the number of organisms to test and the number of biocides and desired concentrations to test. A separate microtiter plate is required for testing each biocide alone, in addition to the combination microtiter plate. • 2. Prepare a working stock solution of each biocide to be tested. For the combination microtiter plate, the working stock solution of Biocide A will be 8× the concentration desired in the first well of the combination microtiter plate. The working stock solution of Biocide B will be 4× the concentration desired in the first well of the combination microtiter plate. For the alone microtiter plates, the working stock solutions of Biocide A and Biocide B will both be 4× the concentration desired in the first well of the single biocide microtiter plates.
Tetrahydro-3-5-dimethyl-2H-1,3-5-thiadiazine-2-thione (Dazomet): (For combination plates) A solution of this product, which is 99% active, was made as follows: […]=8000 ppm active=8000/0.99=8080 ppm, 0.8 g into 100 mL MeOH and sterile diH2O.
o-Phenylphenol (OPP): (For combination plates) Make a solution of this product which is 99% active, 4×125=500 ppm active=500/0.99=505 ppm, 0.05 g into 100 mL MeOH and sterile diH2O. Level to test is 125 ppm.
(For alone plates) A solution was made as follows: 4×4000=16000 ppm active=16000/0.99=16161 ppm, 1.6 into 100 mL MeOH and sterile diH2O. Levels to test are: 4000 ppm, 2000 ppm, 1000 ppm, 500 ppm, 250 ppm, 125 ppm, 62.5 ppm, 31.2 ppm, 15.6 ppm, 7.8 ppm, 3.9 ppm, 1.95 ppm • 3. Place 50 ul of sterile distilled water in all of the rows in columns 1 through 10, and 100 ul of sterile distilled water in all of the rows in columns 11 and 12 of the 96 well combination microtiter plate. Place 100 ul of sterile distilled water in each well of the 96 well alone microtiter plates. • 4. For the combination microtiter plate, place 50 ul of the Biocide A stock solution into all of the rows in column 1 of the combination microtiter plate. • 5. […]

[2] = tested on: artificial bacterial consortium containing approximately equal numbers of six bacterial strains; assay: bacterial growth inhibition dose protocol in synthetic white water (O.D. 650 nm, 4 hours); format: cell-based; conditions: for Synergy Index: Dazomet & NaOPP, end point 50% inhibition, SI<1 synergism
Description: The actives were evaluated in synthetic white water with pH values of 5.5 and 8.0. The materials were tested against an artificial bacterial consortium containing approximately equal numbers of six bacterial strains. […] Two of the strains were Kiebsiella pneumoia (ATCC 13883) and Pseudomonas aeruginosa (ATCC 15442). The other four strains were isolated from papermill systems and have been identified as Curtobacterium flaccumfaciens, Burkhlderia cepacia, Bacillus maroccanus, and Pseudomonas glethei. Each strain was inoculated at 37° C. overnight, then suspended in sterile saline. Equal volumes of each strain were then combined to prepare the consortium. The bacterial consortium was distributed into the wells of a microtiter plate in the presence or absence of various concentrations of the active materials. The microtiter plates were incubated at 37° C. Optical density (O.D.) readings at 650 nm were taken initially (t0) and after time 4 hours (t4) of incubation.
The raw data was converted to “bacterial growth inhibition percentages” according to the following formula: % Inhibition=[(a−b)÷a]·100 […]
a=(O.D. of control at tn)−(O.D. of control at t0) b=(O.D. of treatment at tn)−(O.D. of treatment at t0)
The inhibition values can be plotted versus dosage for each active and the particular blend. […] The synergism index (SI) was calculated by the equations described by F. C. Kull, P. C. Eisman, H. D. Sylwestrowicz, and R. L. Mayer (1961), Applied Microbiology 9, 538-541. The values are based on the amount needed to achieve a specified end point. […] Synergy Index (SI)=(QA÷Qa)+(QB÷Qb) […]
QA=quantity of compound A in mixture, producing the end point
Qa=quantity of compound A1 acting alone, producing the end point
QB=quantity of compound B in mixture, producing the end point
Qb=quantity of compound B1 acting alone, producing the end point
If SI is less than 1, synergism exists; if SI is greater than 1, antagonism exists, if SI is equal to 1, an additive effect exists.

SMILES | MIC ([1]; pH 7.0, biocide alone) | MIC ([1]; pH 8.0, biocide alone) | MIC ([1]; pH 9.0, biocide alone) | Synergy Index ([2]; pH 5.5) | ppm Dazomet ([2]; pH 5.5, Dazomet alone or in blend with NaOPP giving 50% inhibition, ppm active) | Synergy Index ([2]; pH 8.0) | Ppm Dazomet ([2]; pH 8.0, Dazomet alone or in blend with NaOPP giving 50% inhibition, ppm active)
Oc1ccccc1-c1ccccc1 [OPP, o-Phenylphenol] | 2000 µg/mL | 1000 µg/mL | 500 µg/mL | – | – | – | –
CN1CSC(=S)N(C)C1 [Dazomet, tetrahydo-3,5-dimethyl-2H-1-3-5-thiadiazine-2-thione] | 2000 µg/mL | 2000 µg/mL | 4000 µg/mL | 1.00 | 6.176 ppm | 1.00 | 5.34 ppm
